Measurements taken from patent US20090022729A1, “METHODS AND COMPOSITIONS FOR TREATING CARDIAC DYSFUNCTIONS” (priority 2007, published 2009).

Columns and labels:
PAR-1 [1] = biological target: T1, PAR-1 (Homo sapiens, UniProt P25116); settings: cited from earlier work
T1 sequence (P25116 22-425): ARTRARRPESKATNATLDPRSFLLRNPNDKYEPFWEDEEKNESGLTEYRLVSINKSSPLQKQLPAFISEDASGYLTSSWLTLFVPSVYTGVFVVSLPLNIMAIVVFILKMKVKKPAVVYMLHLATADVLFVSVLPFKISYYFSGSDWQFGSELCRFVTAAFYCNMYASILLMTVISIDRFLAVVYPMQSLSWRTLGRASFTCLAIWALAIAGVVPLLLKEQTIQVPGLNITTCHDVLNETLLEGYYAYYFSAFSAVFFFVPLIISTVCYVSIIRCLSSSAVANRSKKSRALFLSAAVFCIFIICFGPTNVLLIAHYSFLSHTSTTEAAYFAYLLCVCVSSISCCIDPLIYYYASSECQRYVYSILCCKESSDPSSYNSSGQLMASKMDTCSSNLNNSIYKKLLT

PAR4 = biological target: T2, PAR4 (Homo sapiens, UniProt Q96RI0); settings: cited from earlier work
T2 sequence (Q96RI0 18-385): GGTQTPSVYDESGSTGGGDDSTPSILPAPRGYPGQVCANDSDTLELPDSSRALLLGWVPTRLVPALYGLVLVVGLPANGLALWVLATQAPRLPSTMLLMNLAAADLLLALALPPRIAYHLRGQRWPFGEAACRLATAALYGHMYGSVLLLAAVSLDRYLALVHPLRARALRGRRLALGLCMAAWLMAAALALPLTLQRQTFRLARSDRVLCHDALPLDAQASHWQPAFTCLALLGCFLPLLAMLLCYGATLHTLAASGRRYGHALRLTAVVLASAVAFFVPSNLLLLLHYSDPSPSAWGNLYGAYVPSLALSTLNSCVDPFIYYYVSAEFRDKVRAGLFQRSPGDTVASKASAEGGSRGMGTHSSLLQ

PAR2 = biological target: T3, PAR2 (Homo sapiens, UniProt P55085); settings: cited from earlier work
T3 sequence (P55085 26-397): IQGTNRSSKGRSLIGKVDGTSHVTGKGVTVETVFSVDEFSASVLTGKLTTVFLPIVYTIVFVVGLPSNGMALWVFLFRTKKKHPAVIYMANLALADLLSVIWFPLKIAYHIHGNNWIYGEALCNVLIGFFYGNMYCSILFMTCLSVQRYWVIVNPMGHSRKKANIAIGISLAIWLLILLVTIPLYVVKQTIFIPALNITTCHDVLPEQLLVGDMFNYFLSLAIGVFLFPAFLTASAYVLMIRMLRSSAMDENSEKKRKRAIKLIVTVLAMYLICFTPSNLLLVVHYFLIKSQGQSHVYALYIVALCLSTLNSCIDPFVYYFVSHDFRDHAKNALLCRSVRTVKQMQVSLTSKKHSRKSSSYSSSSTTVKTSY

PAR-1 [2] = biological target: T1, PAR-1; settings: cited from earlier work; remark: listed apart in the source
PAR3 = biological target: T4, PAR3 (Homo sapiens, UniProt O00254); settings: cited from earlier work
T4 sequence (O00254 22-374): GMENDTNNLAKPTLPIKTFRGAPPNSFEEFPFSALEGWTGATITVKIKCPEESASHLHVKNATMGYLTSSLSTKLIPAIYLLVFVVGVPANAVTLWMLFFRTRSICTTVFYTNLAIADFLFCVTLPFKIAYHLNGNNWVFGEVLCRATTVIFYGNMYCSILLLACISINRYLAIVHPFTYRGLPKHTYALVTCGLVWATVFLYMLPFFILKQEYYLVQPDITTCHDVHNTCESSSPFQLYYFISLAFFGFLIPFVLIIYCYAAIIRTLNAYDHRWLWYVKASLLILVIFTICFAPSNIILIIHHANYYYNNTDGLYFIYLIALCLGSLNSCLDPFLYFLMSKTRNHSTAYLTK

thrombin [3] = biological target: thrombin (Homo sapiens, UniProt P00734); settings: cited from earlier work
thrombin [4] = biological target: T5, thrombin (Mus musculus, UniProt P19221); test: short-term cardiac I/R injury model (30 minutes of ischemia and 2 hours of reperfusion); type: in vivo; settings: WT mice, hirudin vs saline, FIG. 1A
T5 construct: from tissue; host or cells: wild-type mice in vivo (blood / injured myocardium)
Method: Cardiac I/R injury models. For the short-term I/R model (30 minutes of ischemia and 2 hours of reperfusion), the surgical protocol and infarct size determination were performed as described in Palazzo et al. (Am. J. Physiol. 275:H2300-H2307 (1998)) with some modifications. Briefly, intraperitoneal injection of pentobarbital (100 mg/kg) (Abbott Laboratories, Abbott Park, Ill.) was used for anesthesia. Mice were orally intubated to provide artificial ventilation (0.3 mL tidal volume, 120 breaths/minute). The left anterior descending coronary artery was occluded with a 7-0 silk suture (U.S. Surgical Corp., Norwalk, Conn.) passed through PE tubing (U.S. Surgical Corp.) to make a Rumel snare. After 30 minutes of ischemia, the snare was released and the heart was reperfused for 2 hours. Finally, the artery was reoccluded and 4% Evans Blue dye was injected into the aortic root to delineate the area-at-risk (AAR) from not at-risk myocardium (blue). […] The LV, AAR and infarct areas were traced and calculated by computer planimetry (Image J, version 1.21). Infarct volumes were calculated as: [(A1×W1)+(A2×W2)+(A3×W3)+(A4×W4)+(A5×W5)], where A is the area of infarct for the slice denoted by the subscript and W is the weight of the respective section.

## NCC[C@H](NC(=O)[C@H](Cc1ccc(F)c(F)c1)NC(=O)Nc1ccc2c(CN3CCCC3)cn(Cc3c(Cl)cccc3Cl)c2c1)C(=O)NCc1ccccc1 [RWJ-56110, (αS)—N-[(1S)-3-amino-1-[[(phenylmethyl)amino]carbonyl]propyl]-α-[[[[[1-(2,6-dichlorophenyl)methyl]-3-(1-pyrrolidinylmethyl)-1H-indol-6-yl]amino]carbonyl]amino]-3,4-difluorobenzenepropanamide]
PAR-1 [1]
  PAR1 antagonist activity and selectivity: potent, selective PAR-1 antagonist
PAR4
  effect on PAR4: does not affect
PAR2
  effect on PAR2: does not affect
PAR-1 [2]
  calcium mobilization: interferes with calcium mobilization
PAR3
  effect on PAR3: does not affect
Thrombin [3]
  inhibition of thrombin activity: does not affect PAR2, PAR3, or PAR4 or inhibit thrombin activity

## hirudin
Thrombin [4]
  infarct size: decreased
  size of the area at-risk: Neither hirudin treatment nor PAR1 deficiency affected
